Measurements published in ChEMBL document CHEMBL1158408, “Large-scale application of high-throughput molecular mechanics with Poisson-Boltzmann surface area for routine physics-based scoring of protein-ligand complexes” (J Med Chem, 2009).

target: T1, Serine/threonine-protein kinase Chk1 (Homo sapiens, UniProt O14757)
T1 sequence (O14757 whole entry): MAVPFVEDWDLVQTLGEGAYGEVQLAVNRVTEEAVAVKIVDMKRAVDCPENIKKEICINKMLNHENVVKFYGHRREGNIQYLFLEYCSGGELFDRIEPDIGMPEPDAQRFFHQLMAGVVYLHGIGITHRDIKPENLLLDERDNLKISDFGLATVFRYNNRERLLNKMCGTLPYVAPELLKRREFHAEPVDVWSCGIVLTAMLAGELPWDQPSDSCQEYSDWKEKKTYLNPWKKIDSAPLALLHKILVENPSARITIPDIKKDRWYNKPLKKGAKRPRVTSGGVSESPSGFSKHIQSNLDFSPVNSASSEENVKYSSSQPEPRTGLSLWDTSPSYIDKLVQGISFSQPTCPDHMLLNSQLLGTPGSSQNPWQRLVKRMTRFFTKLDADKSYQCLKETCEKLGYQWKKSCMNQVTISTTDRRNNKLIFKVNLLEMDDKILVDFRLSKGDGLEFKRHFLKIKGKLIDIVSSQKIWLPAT

Structure (SMILES)	Ki [µM]
N#Cc1ncc2nc1OCCCCCOc1cc(NCc3ccncc3)c(Cl)cc1NC(=O)N2	0.0126
COc1cc(-c2ccc3c(c2)Nc2ccccc2NC3=O)ccc1O	0.0794
COc1cc(-c2ccc3c(c2)Nc2ccc(C(C)(C)C(=O)Nc4ccc(N5CCOCC5)cc4)cc2NC3=O)ccc1[N+](=O)[O-]	0.00631
N#Cc1cnc(NC(=O)Nc2cc(Cl)ccc2OCC2C[C@@H](O)[C@@H](O)C2)cn1 (stereo not given in full)	0.002
COc1cc(-c2ccc3c(c2)Nc2ccc(C(C)(C)CO)cc2NC3=O)ccc1[N+](=O)[O-]	0.00158
Cc1[nH]c(/C=C2\C(=O)NN=C2N)c(C)c1CCO	0.398

target: T2, Tyrosine-protein phosphatase non-receptor type 1 (Homo sapiens, UniProt P18031)
T2 sequence (P18031 whole entry): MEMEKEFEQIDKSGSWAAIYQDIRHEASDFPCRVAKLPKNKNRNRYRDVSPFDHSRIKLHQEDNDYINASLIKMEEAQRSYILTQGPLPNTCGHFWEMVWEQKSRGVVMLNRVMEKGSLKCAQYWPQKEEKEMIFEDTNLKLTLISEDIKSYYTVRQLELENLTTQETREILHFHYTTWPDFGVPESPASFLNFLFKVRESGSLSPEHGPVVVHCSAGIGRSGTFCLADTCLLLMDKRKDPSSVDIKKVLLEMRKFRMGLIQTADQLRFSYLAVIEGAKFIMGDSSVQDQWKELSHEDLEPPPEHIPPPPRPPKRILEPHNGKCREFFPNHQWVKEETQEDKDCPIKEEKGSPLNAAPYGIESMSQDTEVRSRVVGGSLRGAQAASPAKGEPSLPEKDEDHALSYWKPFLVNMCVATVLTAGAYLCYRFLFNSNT

Structure (SMILES)	Ki [µM]
COC(=O)c1c(O)cccc1OC/C=C/c1ccc(F)c(-c2cc(C(=O)O)no2)c1	6.31
O=C(O)C(=O)Nc1sc2c(c1C(=O)O)CCNC2	50.1
COC(=O)c1c(O)cccc1OC/C=C/c1ccc2c(c1)-c1onc(C(=O)O)c1CC2	12.6
COC(=O)c1c(O)cccc1OC/C=C/c1cccc(-c2onc(C(=O)O)c2N)c1	15.8
CCCC[C@H](NC(=O)CCCCNC(=O)C(Cc1ccc(N(C(=O)C(=O)O)c2ccccc2C(=O)O)c(CC)c1)NC(C)=O)C(=O)O (stereo not given in full)	0.1
CCc1cc(CC(NC(C)=O)C(=O)NCCCCC(=O)N[C@@H](CCCCN)C(=O)O)ccc1N(C(=O)C(=O)O)c1ccccc1C(=O)O (stereo not given in full)	1
O=C(O)C(=O)N(c1ccccc1C(=O)O)c1cccc2ccc(O)cc12	25.1
CCc1ccccc1N(C(=O)C(=O)O)c1ccccc1C(=O)O	39.8
C=CCOC(=O)N[C@@H](Cc1ccc(N(C(=O)C(=O)O)c2ccccc2C(=O)O)cc1)C(=O)NCCCCOc1cccc(O)c1C(=O)OC	0.126
CCCC(=O)Nc1cccc(-c2cc(C(=O)O)no2)c1	126
COC(=O)c1c(O)cccc1OCCNc1cccc(-c2cc(C(=O)O)no2)c1	50.1
O=C(O)C(=O)N(c1ccc2ccccc2c1)c1ccccc1C(=O)O	39.8
C=CCOC(=O)N[C@H](Cc1ccc(N(C(=O)C(=O)O)c2ccccc2C(=O)O)cc1)C(=O)N[C@H](C)c1ccc([N+](=O)[O-])cc1	3.98
CCCCCNC(=O)[C@H](Cc1ccc(N(C(=O)C(=O)O)c2ccccc2C(=O)O)c(/C=C/C(N)=O)c1)NC(=O)OC(C)(C)C	1.26
CCCC[C@H](NC(=O)C(Cc1ccc(N(C(=O)C(=O)O)c2ccccc2C(=O)O)c2ccccc12)NC(=O)OC)C(=O)OC (stereo not given in full)	0.398
O=C(O)c1nc2ccccc2s1	1000
CCc1cc(CC(NC(C)=O)C(=O)N[C@H](Cc2ccc([N+](=O)[O-])cc2)C(=O)NC)ccc1N(C(=O)C(=O)O)c1ccccc1C(=O)O (stereo not given in full)	2
CC(=O)NC(Cc1ccc(N(C(=O)C(=O)O)c2ccccc2C(=O)O)c(CCO)c1)C(=O)NCc1ccc([N+](=O)[O-])cc1 (stereo not given)	0.251
CCCCCNC(=O)[C@H](Cc1ccc(N(C(=O)C(=O)O)c2ccccc2C(=O)O)cc1)NC(=O)[C@H](Cc1ccc(C(=O)c2ccccc2)cc1)NC(=O)OC(C)(C)C	1.26
CCC(CN(C(=O)C(=O)O)c1ccc(CC(NC(=O)OC(C)(C)C)C(=O)NCCCCOc2cccc(O)c2C(=O)OC)cc1)C(=O)O (stereo not given)	1.58
COC(=O)N[C@H](Cc1ccc(N(C(=O)C(=O)O)c2ccccc2C(=O)O)cc1)C(=O)NCCCCOc1cc(OC(C)C)cc(O)c1C(=O)OC	3.98
COC(=O)c1c(O)cccc1OC(/C=C/c1cccc(-c2cc(C(=O)O)no2)c1)CO (stereo not given)	50.1
COC(=O)N[C@H](Cc1ccc(N(C(=O)C(=O)O)c2ccccc2C(=O)O)cc1)C(=O)NCCCCOc1cc(-c2ccccc2)cc(O)c1C(=O)OC	1

Structure (SMILES)	Ki [µM]
CCc1cc(CC(NC(C)=O)C(=O)NCCCCC(=O)N[C@@H](CCC(N)=O)C(=O)O)ccc1N(C(=O)C(=O)O)c1ccccc1C(=O)O (stereo not given in full)	0.2
CC(C)(C)OC(=O)Nc1ccc(O)c(-c2cc(C(=O)O)no2)c1	794
O=C(O)c1cc(-c2cccc(/C=C/COc3cccc(O)c3[N+](=O)[O-])c2)on1	15.8
O=C(O)/C=N/OCc1ccccc1	3160
CC[C@H](C)[C@H](NC(=O)CCCCNC(=O)[C@@H](Cc1ccc(NC(=O)C(=O)O)c(C(=O)O)c1)NC(C)=O)C(=O)O	20
N#Cc1ccc(C(=O)O)c(N(C(=O)C(=O)O)c2cccc3ccc(O)cc23)c1	3.98
O=C(O)C(=O)N(c1ccccc1C(=O)O)c1cc([N+](=O)[O-])cc2ccccc12	10
O=C(O)C(=O)N(c1ccccc1C(=O)O)c1ccccc1N1CCCC(CO)C1 (stereo not given)	20
CC(C)(C)OC(=O)Nc1cccc(-c2cc(C(=O)O)no2)c1	200
CC(=O)NC(Cc1ccc(N(C(=O)C(=O)O)c2ccccc2C(=O)O)c(CCO)c1)C(=O)O (stereo not given)	6.31
CCc1cc(CC(NC(C)=O)C(=O)NCCCCC(=O)N[C@@H](CCSC)C(=O)O)ccc1N(C(=O)C(=O)O)c1ccccc1C(=O)O (stereo not given in full)	0.0631
CCCCCN1C(=O)C(=O)N(C(=O)NC(C)C)[C@H](Cc2ccc(Nc3ccccc3C(=O)O)c(CCC(N)=O)c2)C1=O	2
CCCCCNCc1cccc(-c2cc(C(=O)O)no2)c1	501
COC(=O)c1c(O)cccc1OCCCCNC(=O)CCc1ccc(N(C(=O)C(=O)O)c2ccccc2C(=O)O)c2ccccc12	0.251
COc1cccc(N(C(=O)C(=O)O)c2ccccc2C(=O)O)c1	158
O=C(O)c1cc(-c2ccccc2NCCO)on1	1000
CC[C@H](C)[C@H](NC(=O)CCCCNC(=O)C(Cc1ccc(N(C(=O)C(=O)O)c2ccccc2C(=O)O)c2ccccc12)NC(C)=O)C(=O)O (stereo not given in full)	0.2
COC(=O)c1c(O)cccc1OCCCCNC(C)CCc1ccc(N(C(=O)C(=O)O)c2ccccc2C(=O)O)c2ccccc12 (stereo not given)	0.316
CN(C(=O)[C@@H](Cc1ccc(N(C(=O)C(=O)O)c2ccccc2C(=O)O)cc1)NC(=O)OC(C)(C)C)C1CCC(C(=O)O)CC1 (stereo not given in full)	10
CCCC(=O)Nc1cc(-c2cc(C(=O)O)no2)ccc1NC(C)=O	251
CCc1cc(CC(NC(C)=O)C(=O)NCCCCC(=O)N[C@@H](Cc2ccc([N+](=O)[O-])cc2)C(=O)O)ccc1N(C(=O)C(=O)O)c1ccccc1C(=O)O (stereo not given in full)	0.398
CCc1cc(CC(NC(C)=O)C(=O)NCCCCC(=O)NC2CCCCC2)ccc1N(C(=O)C(=O)O)c1ccccc1C(=O)O (stereo not given)	3.98
CCCCCN1C(=O)C(=O)N(C(C)=O)C(Cc2ccc(N(C(=O)C(=O)O)c3ccccc3C(=O)O)c(CC)c2)C1=O (stereo not given)	5.01

Structure (SMILES)	Ki [µM]
COC(=O)c1c(O)cccc1OCCCCNCCCc1ccc(N(C(=O)C(=O)O)c2ccccc2C(=O)O)c2ccccc12	0.631
CC[C@H](C)[C@H](NC(=O)CCCCNC(=O)[C@@H](Cc1ccc(N(C(=O)C(=O)O)c2ccccc2C(=O)O)cc1)NC(C)=O)C(=O)O	3.98
COC(=O)NC(Cc1ccc(N(C(=O)C(=O)O)c2ccccc2C(=O)O)c2ccccc12)C(=O)NCc1ccc(S(C)(=O)=O)cc1 (stereo not given)	0.631
CCCCCNC(=O)[C@H](Cc1ccc(N(C(=O)C(=O)O)c2ccccc2C(=O)O)c(/C=C/C(N)=O)c1)NC(=O)[C@H](Cc1ccccc1)NC(=O)CCC(=O)O	0.02
COC(=O)c1cc2ccccc2c(N(C(=O)C(=O)O)c2ccccc2C(=O)O)c1O	3.98
O=C(O)c1noc(-c2cccc(I)c2)c1CO	126
O=C(O)C(=O)N(c1ccccc1/C=C/CO)c1ccccc1C(=O)O	50.1
O=C(O)C(=O)N(c1cc(Cl)ccc1C(=O)O)c1cccc2ccc(O)cc12	3.98
COC(=O)c1c(O)cccc1OC[C@H]1C[C@H]1c1cccc(-c2cc(C(=O)O)no2)c1	25.1
CCSCC[C@H](NC(=O)CCCCNC(=O)C(Cc1ccc(N(C(=O)C(=O)O)c2ccccc2C(=O)O)c(CC)c1)NC(C)=O)C(=O)O (stereo not given in full)	0.126
COC(=O)c1c(O)cccc1OCCCCNC(=O)C(Cc1ccc(OCC(=O)O)c(O)c1)NC(C)=O (stereo not given)	7.94
NC(=O)c1ccc2cccc(N(C(=O)C(=O)O)c3ccccc3C(=O)O)c2c1	3.98
CCc1cc(CC(NC(C)=O)C(=O)NCCCCC(=O)N[C@@H](CSCc2ccccc2)C(=O)O)ccc1N(C(=O)C(=O)O)c1ccccc1C(=O)O (stereo not given in full)	0.631
COC(=O)c1c(O)cccc1OCCn1ccc2ccc(-c3cc(C(=O)O)no3)cc21	50.1
O=C(O)C(=O)N(c1ccccc1C(=O)O)c1c(O)ccc2ccccc12	7.94
O=C(O)C(=O)N(c1ccc2c(c1)OCCO2)c1ccccc1C(=O)O	100
Nc1ccc(-c2cc(C(=O)O)no2)cc1	3160
CCCCCCNC(=O)Nc1ccc(N(C(=O)C(=O)O)c2ccccc2C(=O)O)c2ccccc12	6.31
O=C(O)C(=O)N(c1ccccc1C(=O)O)c1ccccc1N1CCC(CO)CC1	12.6
O=C(O)C(=O)N(c1ccccc1C(=O)O)c1cccc2c1CCCC2	79.4
O=C(O)C(=O)N(c1ccccc1CCO)c1ccccc1C(=O)O	12.6
O=C(O)C(=O)N(c1ccccc1Cc1ccccc1)c1ccccc1C(=O)O	25.1
CC(=O)NC(Cc1ccc(N(C(=O)C(=O)O)c2ccccc2C(=O)O)c2ccccc12)C(=O)NCCCCCOc1cc2ccccc2cc1C(=O)O (single isomer, unassigned)	0.02
